Test results from ChEMBL document CHEMBL1201862, “PubChem BioAssay data set” (2004).
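1) Cells in 96-well plates. 2) Compound, 48 h, 5 concentrations. 3) Linear interpolation between surrounding doses. 4) Unreached endpoint = highest concentration. Here, GI50 denotes the concentration required for 50% inhibition of growth.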 The source made the active and inactive calls. Rule as the data show it: active = GI50 up to about 1.1 µM and inactive = higher.

Legend:
Experiment in all cases: NCI tumour cell line growth inhibition, 48 h
UO-31 = tested on: UO-31
HCC 2998 = tested on: HCC 2998
RXF 393 = tested on: RXF 393
SF-295 = tested on: SF-295
KM12 = tested on: KM12
NCI-H460 = tested on: NCI-H460
IGROV-1 = tested on: IGROV-1
EKVX = tested on: EKVX
LOX IMVI = tested on: LOX IMVI
HCT-15 = tested on: HCT-15
HOP-92 = tested on: HOP-92
SK-MEL-28 = tested on: SK-MEL-28
SNB-19 = tested on: SNB-19
SNB-75 = tested on: SNB-75
OVCAR-4 = tested on: OVCAR-4
UACC-62 = tested on: UACC-62
SW-620 = tested on: SW-620
HL-60 = tested on: HL-60
SR = tested on: SR

Row | Compound | GI50 (UO-31) | GI50 (HCC 2998) | GI50 (RXF 393) | GI50 (SF-295) | GI50 (KM12) | GI50 (NCI-H460) | GI50 (IGROV-1) | GI50 (EKVX) | GI50 (LOX IMVI) | GI50 (HCT-15) | GI50 (HOP-92) | GI50 (SK-MEL-28) | GI50 (SNB-19) | GI50 (SNB-75) | GI50 (OVCAR-4) | GI50 (UACC-62) | GI50 (SW-620) | GI50 (HL-60) | GI50 (SR)
1 | CCOC(=O)c1[nH]c(CN(C)Cc2[nH]c(C(=O)OCC)c(C)c2C(=O)OCc2ccccc2)c(C(=O)OCc2ccccc2)c1C | 4.09 µM (inactive) | 14.4 µM (inactive) | 3.87 µM (inactive) | 19.3 µM (inactive) | 7.45 µM (inactive) | 5.58 µM (inactive) | 27.4 µM (inactive) | 12.9 µM (inactive) | 4.75 µM (inactive) | 8.3 µM | 2.42 µM (inactive) | 16.9 µM (inactive) | 12.9 µM (inactive) | 3.3 µM (inactive) | 6.24 µM (inactive) | 20.4 µM (inactive) | 12.7 µM (inactive) | 3.96 µM (inactive) | > 100 µM (inactive)
2 | C[N+]12c3ccccc3O[B-]1(c1ccccc1)Oc1ccccc12 (stereo not drawn) |  |  | 25.4 µM (inactive) | 41 µM (inactive) | 25.2 µM (inactive) |  | 25.4 µM (inactive) | 84.5 µM (inactive) | 16.1 µM (inactive) |  | > 100 µM (inactive) | 35.1 µM (inactive) | 66.1 µM (inactive) | 19.9 µM (inactive) | 31.6 µM (inactive) | 37.4 µM (inactive) | 28.1 µM (inactive) | 14.5 µM (inactive) | 10.9 µM (inactive)
3 | O=C(Nc1c(Cl)cccc1Cl)c1c(Cl)c(Cl)c(Cl)c(Cl)c1-c1nc2ccccc2[nH]1 | 80.5 µM (inactive) | 38.5 µM (inactive) | 18 µM (inactive) | 0.0468 µM (active) | 0.155 µM (active) | > 100 µM (inactive) | 14.2 µM (inactive) | 9.48 µM (inactive) | 46.8 µM (inactive) | 98.9 µM | 29.9 µM (inactive) | 70.6 µM (inactive) |  | 0.313 µM (active) | 43.6 µM (inactive) | 25.4 µM (inactive) | 64.6 µM (inactive) | > 100 µM (inactive) | 27.7 µM (inactive)
4 | C=C(C[N+](C)(C)C)N/N=C/c1oc(-c2ccc(OC)c(OC)c2)c(-c2ccc(OC)c(OC)c2)c1[N+](=O)[O-] | 18.9 µM (inactive) | 19.3 µM (inactive) | 15.2 µM (inactive) | 17.5 µM (inactive) | 17.1 µM (inactive) | 18.5 µM (inactive) | 18.1 µM (inactive) | > 100 µM (inactive) | 15 µM (inactive) | 17.9 µM | 19.6 µM (inactive) | 18.3 µM (inactive) | 34.4 µM (inactive) | 19.4 µM (inactive) | 18.5 µM (inactive) | > 10 µM (inactive) | 18.7 µM (inactive) | 8.63 µM (inactive) | 4.69 µM (inactive)
5 | O=C(c1ccccc1)C1OC12C(=O)Nc1c(Cl)cc(Cl)cc12 (stereo not drawn) | > 57.1 µM (inactive) | > 92.3 µM (inactive) | 24.4 µM (inactive) | 47.2 µM (inactive) | > 100 µM (inactive) | 30.3 µM (inactive) | > 59.4 µM (inactive) | 57.8 µM (inactive) | 23.4 µM (inactive) | 24.3 µM | > 35.9 µM (inactive) | > 100 µM (inactive) | 66.2 µM (inactive) | 7.87 µM (inactive) | 8.2 µM (inactive) | 29.9 µM (inactive) | 16.1 µM (inactive) | 16.4 µM (inactive) | 11.6 µM (inactive)
6 | NC1C2(CCCCCC2)NC(=O)C12CCCCCC2 (stereo not drawn) | > 100 µM (inactive) |  | > 100 µM (inactive) | > 100 µM (inactive) | > 100 µM (inactive) | > 100 µM (inactive) | > 100 µM (inactive) | > 100 µM (inactive) | > 100 µM (inactive) | > 100 µM | > 100 µM (inactive) | > 100 µM (inactive) | > 100 µM (inactive) | > 100 µM (inactive) | > 100 µM (inactive) | > 100 µM (inactive) | > 100 µM (inactive) | > 100 µM (inactive) | > 100 µM (inactive)
7 | Cc1cccc(-c2cc(=O)c3cc(C)c(C)c(C(=O)O)c3o2)c1 | > 100 µM (inactive) | > 100 µM (inactive) |  | > 100 µM (inactive) | > 100 µM (inactive) | > 100 µM (inactive) | > 100 µM (inactive) | > 100 µM (inactive) | > 100 µM (inactive) | > 100 µM | > 100 µM (inactive) | > 100 µM (inactive) | > 100 µM (inactive) | > 100 µM (inactive) | > 100 µM (inactive) | > 100 µM (inactive) | > 100 µM (inactive) | > 100 µM (inactive) | > 100 µM (inactive)
8 | Cc1noc2c1C(=O)CCC2 | > 100 µM (inactive) |  | > 100 µM (inactive) |  |  |  |  | > 100 µM (inactive) | > 100 µM (inactive) |  | > 100 µM (inactive) | > 100 µM (inactive) |  | > 100 µM (inactive) | > 100 µM (inactive) | > 100 µM (inactive) | > 100 µM (inactive) | > 100 µM (inactive) | > 100 µM (inactive)
